Source: ChEMBL document CHEMBL1153643, “Design, synthesis and evaluation of aspirin analogues having an additional carboxylate substituent for antithrombotic activity” (Bioorg Med Chem Lett, 2009)
Calls of active or inactive are those of the source. The rule behind the calls is not given here.

Key:
Format in all cases: cell-free
[1] = target: Prostaglandin G/H synthase 1 (Homo sapiens) (UniProt P23219); assay: Inhibition of PGHS-1 in human platelet rich plasma assessed as inhibition of arachidonic acid-induced platelet aggregation at 1000 um treated 5 min before arachidonic acid challenge by turbidimetry
[2] = target: Prostaglandin G/H synthase 1 (Homo sapiens) (UniProt P23219); assay: Ratio of compound IC50 to aspirin IC50 for PGHS-1 in human platelet rich plasma assessed as inhibition of arachidonic acid-induced platelet aggregation
[3] = target: Prostaglandin G/H synthase 1 (Homo sapiens) (UniProt P23219); assay: Inhibition of PGHS-1 in human platelet rich plasma assessed as inhibition of U46619-induced platelet aggregation in human platelet rich plasma at 1000 um

Sequence of Prostaglandin G/H synthase 1 (Homo sapiens) (P23219 whole entry): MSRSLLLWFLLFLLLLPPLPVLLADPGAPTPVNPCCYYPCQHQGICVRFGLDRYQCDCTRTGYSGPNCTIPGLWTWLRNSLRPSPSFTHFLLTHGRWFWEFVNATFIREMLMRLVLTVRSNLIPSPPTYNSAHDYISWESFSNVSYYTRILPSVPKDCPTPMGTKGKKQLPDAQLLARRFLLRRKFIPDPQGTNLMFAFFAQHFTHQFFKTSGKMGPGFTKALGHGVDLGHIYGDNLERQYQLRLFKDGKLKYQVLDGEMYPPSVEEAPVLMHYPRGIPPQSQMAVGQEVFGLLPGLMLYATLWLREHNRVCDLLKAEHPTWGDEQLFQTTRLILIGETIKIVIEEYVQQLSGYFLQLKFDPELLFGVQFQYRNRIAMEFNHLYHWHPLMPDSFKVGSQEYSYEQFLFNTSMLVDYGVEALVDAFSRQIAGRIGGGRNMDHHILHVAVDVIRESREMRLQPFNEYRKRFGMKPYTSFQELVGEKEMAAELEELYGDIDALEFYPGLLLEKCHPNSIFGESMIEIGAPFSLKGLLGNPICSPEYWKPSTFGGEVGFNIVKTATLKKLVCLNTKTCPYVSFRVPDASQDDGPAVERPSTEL

Activity [1] | Ratio IC50 [2] | Activity [3] | Compound
inactive |  |  | CC(=O)Oc1c(CCCC(=O)O)cccc1C(=O)O
inactive |  |  | CC(=O)Oc1c(CCCCC(=O)O)cccc1C(=O)O
inactive |  |  | CC(=O)Oc1c(C(=O)O)cccc1C(=O)CCCC(=O)O
 | 15 | inactive | COC(=O)CCCCc1cccc(C(=O)OC)c1OC(C)=O
